Measurements reported in US20150274751A1, “TREATMENT OF S[…] AN INHIBITOR OF CBP/CATENIN” (PRISM Pharma Co., Ltd., priority 2012, published 2015).

Experiments:
[1] = test system: bleomycin-induced dermal fibrosis; assay: murine model of bleomycin-induced dermal fibrosis (histopathology scores); format: in vivo, female C3H/HeJ inbred mice (Mus musculus)
Text: The objective of this study was to assess the effects of the test article Compound A, an alpha helix mimetic β-catenin inhibitor compound, in a murine model of bleomycin-induced dermal fibrosis. Compound A is 4-(((6S,9S,9aS)-1-(benzylcarbamoyl)-2,9-dimethyl-4,7-dioxo-8-(quinolin-8-ylmethyl)octahydro-1H-pyrazino[2,1-c][1,2,4]triazin-6-yl)methyl)phenyl dihydrogen phosphate. Negative and positive control articles were phosphate buffered saline (PBS) and dexamethasone (DEX, a known treatment for scleroderma), respectively.
The high-dose (0.5 mg/mL) dosing solution of test article was prepared by mixing 4 mL of test article (stock solution at […]) with 36 mL of PBS. The low-dose (0.05 mg/mL) dosing solution was prepared by mixing 4 mL of the high-dose test article dosing solution (0.5 mg/mL) with 36 mL of PBS. The DEX dosing solution (1 mg/mL) was prepared by mixing 1 mL of the DEX stock solution (3 mg/mL) with 2 mL of PBS. The test and positive control articles were prepared once weekly, aliquoted and stored at 4° C. protected from light.
Forty-five female C3H/HeJ inbred mice (Mus musculus) at ages of approximately 6 weeks were obtained from Jackson Laboratory (Bar Harbor, Me.) for use in the study. Mice were selected for the study since these animals are an accepted species frequently used in pre-clinical evaluation of drugs intended for human use.
(§1) Dermal fibrosis was induced locally by six weeks of once-daily subcutaneous injections of bleomycin (0.1 U in 0.1 mL) into a defined area on the back of each mouse. Test and control articles were administered by twice-daily intraperitoneal injection starting from Day 14 (i.e., two weeks after the initiation of bleomycin injection). For mice of Groups 1-4, test/control article were administered (BID, IP) for four weeks, starting from Day 14 (i.e., two weeks after the initial bleomycin injection) administration was performed twice daily. Group 1 received negative control article (PBS) at 200 μL/mouse. Groups 2 and 3 received low- and high-dose test article dosing solutions (0.05 and 0.5 mg/mL Compound A) at doses of 0.5 and 5 mg/kg, respectively. Group 4 received DEX dosing solution (1 mg/mL) at doses of 1 mg/kg. […]
Mice were euthanized on Day 42, i.e., following six weeks of bleomycin injection and four weeks of test/control article treatment. A full gross necropsy was performed on each mouse, and any macroscopic abnormality was recorded. […]
Formalin-fixed skin and lung tissues from each mouse were processed for histopathology. […] Slides were evaluated for dermal fibrosis and dermal inflammation. […] Dermal fibrosis and inflammation were scored using the industry standard 5-point scoring system as follows: 0=no significant changes; 1=trace to minimal severity; 2=mild severity; 3=moderate severity; 4=marked severity. […]

[2] = body weight in bleomycin-injected mice; format: in vivo, female C3H/HeJ inbred mice (Mus musculus); details: Group 4: bleomycin plus DEX 1 mg/kg IP BID; differences among groups at sacrifice not significant (P>0.05)
Method: as §1, with “mg/kg. For animals of Groups 2-4, doses were administered at dose volumes of 10 mL/kg, and dose volumes for individual animals were recalculated once weekly based on the most recent body weights. Animals were administered bleomycin and test and control articles in two cohorts, with dosing staggered by one day. Cohort A was composed of the first five animals in each group [x01-x05, where x denoted the study group number (1, 2, 3, or 4)]. Cohort B was composed of the remaining animals (x06-x10).” for “mg/kg.”

Structure (SMILES)	dermal sclerosis scores vs vehicle-treated mice (FIG. 1) ([1]; Compound A at either dose (0.5 and 5 mg/kg IP BID Days 14-41), Day 42, P<0.01)	dermal fibrosis (summary) ([1]; bleomycin-injected mice, treatment IP BID Days 14-41)	dermal inflammation scores ([1]; bleomycin-injected mice, Compound A 0.5 and 5 mg/kg IP BID Days 14-41, Day 42 histopathology, 0-4 score)	amount of dermal fibrosis (qualitative histopathology) ([1]; both test article-treated groups (0.5 and 5 mg/kg IP BID), Day 42)	decrease in mean body weight [2]
C[C@H]1[C@H]2N(C(=O)CN(C)N2C(=O)NCc2ccccc2)[C@@H](Cc2ccc(OP(=O)(O)O)cc2)C(=O)N1Cc1cccc2cccnc12 [Compound A, 4-(((6S,9S,9aS)-1-(benzylcarbamoyl)-2,9-dimethyl-4,7-dioxo-8-(quinolin-8-ylmethyl)octahydro-1H-pyrazino[2,1-c][1,2,4]triazin-6-yl)methyl)phenyl dihydrogen phosphate]	significant decrease	ameliorated	did not significantly affect	mildly reduce	
C[C@@H]1C[C@H]2[C@@H]3CCC4=CC(=O)C=C[C@]4(C)[C@@]3(F)[C@@H](O)C[C@]2(C)[C@@]1(O)C(=O)CO [DEX, dexamethasone]					largest decrease
